Read-outs that look alike come from different tables or passages of the source.
Tests used:
weiblichen NMRI-Mäusen = assay: Sedative effect: inhibition of orientation hypermotility induced by a new environment, photoelectric measurement; type: in vivo, Maus; conditions: for ED50: Mus musculus, po, 0.5 h, Maus, read-out: Motilitätshemmung ED 50 %; for Wirkungsstärke (sedativ) der Referenzsubstanz / Motilitätshemmung um 50 %: -mal größere Dosen als Referenzsubstanz: relative to Chlorpromazin; for Wirkungsstärke (sedativ) der Referenzsubstanz: mouse p.o.; for sedative Wirkung: result in words
Description: (§1) Sie eignen sich mit bevorzugter sedativ/transquilisierender und anti-monaminerger Wirkung als Sedativa/Hypnotika oder als Tranquilizer bzw. Neuroleptica. Andere erfindungsgemäße Verbindungen eignen sich wegen ihrer relativ selektiven blutdrucksenkenden Wirksamkeit zur Behandlung der Hypertonie und zur Entlastung des Herzen bei Herzinsuffizienz. ) Zum Nachweis der pharmakologischen Wirkungen wurden folgende Methoden verwendet: • 1. Sedative Wirkung • 4-8 Gruppen von jeweils 3 weiblichen NMRI-Mäusen erhalten die Substanz oral appliziert. Die photoelektrische Bestimmung der durch eine neue Umgebung induzierten Orientierungshypermotilität erfolgt 30 min nach der Applikation der Substanzen für eine Dauer von 30 min. • Als ED 50 wird die Dosis bestimmt, welche im Vergleich zu Placebo-behandelten Kontrolltieren eine Abnahme der Orientierungshypermotilität um 50 % bewirkt. • 2. Anti-Methamphetamin-Wirkung • Methamphetamin-HCl (2,5 mg/kg i.v.) ruft an Ratten regelmäßig folgende Symptome hervor: motorische Unruhe, Such- und Schnüffelbewegungen, Fellsträuben sowie Tremor (Janssen et al., Arzeim. Forsch./Drug Res. 13, 205, 1963, RANDRUP et al., Psychopharmacologia 11, 300, 1967). • Die Prüfsubstanzen werden 30 min vor Methamphetamin intraperitoneal verabfolgt. Kriterium für einen Substanzeffekt ist das Ausbleiben der Schnüffelbewegungen innerhalb eines 5-minütigen Beobachtungszeitraums nach Methamphetamin-Injektion. • Als mittlere Hemmdosis (ED 50) wird mittels Probitanalyse die Dosis ermittelt, die das Symptom bei der Hälfte der Tiere verhindert. • 3. Hypotensive Wirkung • Die blutdrucksenkende Wirkung wurde an narkotisierten Ratten (Stamm: Spraque Dawley, Gewicht: 230-280 g) in Urethan-Narkose (1,78 g/kg i.p.) nachgewiesen. Der Blutdruck wurde in der Aorta carotis gemessen. Die Substanzapplikation erfolgte in eine Vena jugularis (wäßrige Lösung, 1 ml/kg). Als ED 20 % wurden aus der linearen Regression zwischen log Dosis (mg/kg) und relativer Blutdrucksenkung (Δ%) die Dosen ermittelt, welche eine 20 %ige Blutdrucksenkung bewirken.

[1] = tested on: narkotisierten Ratten (Stamm: Spraque Dawley); assay: Hypotensive effect: blood pressure lowering in urethane-anaesthetised rats; type: in vivo, Ratte; conditions: for ED20: Rattus norvegicus, iv, read-out: Blutdrucksenkung ED 20 %; for Blutdrucksenkung ED 20 % R.W. (Relative Wirksamkeit: Chlorpromazin = 1,00) / Blutdrucksenkung ED 20 % R.W. (Relative Wirksamkeit; Chlorpromazin = 1,00): i.v.; for Q (ED 50 % Motilitätshemmung / ED 20 % Blutdrucksenkung): ratio of mouse p.o. ED 50 % to rat i.v. ED 20 %; for hypotensiv wirksame Dosen, -mal größer als die der Referenzsubstanz: rat i.v.
Description: as §1

[2] = Table 1, Applikation: per. os., measured 30 min after application for 30 min
[3] = Table 1, Ratte, Urethan-Narkose, Applikation: i.v.
[4] = Table 2, Ratte, Urethan-Narkose, Applikation: i.v.
[5] = Table 2, Ratte, Urethan-Narkose
[6] = Table 1, Ratte, Urethan-Narkose

SMILES | ED50 (weiblichen NMRI-Mäusen; [2]) [mg/kg] | sedative Wirkung (weiblichen NMRI-Mäusen) | ED50 (weiblichen NMRI-Mäusen; Table 2, Applikation: per os.) [mg/kg] | ED20 [1, 4] [mg/kg] | Blutdrucksenkung ED 20 % R.W. (Relative Wirksamkeit: Chlorpromazin = 1,00) [1, 5] | Q (ED 50 % Motilitätshemmung / ED 20 % Blutdrucksenkung) ([1]; Table 2) | further results
COc1cccc(N2CCN(CC(O)COc3cccc4c3CCC4=O)CC2)c1 (racemic) [Beispiel 14, 4-(3-[4-(3-Methoxyphenyl)-1-pipera-zinyl]-2-hydroxy-propoxy)-indanon-1] | 9.44 | sedativ wirken | – | – | – | – | Wirkungsstärke (sedativ) der Referenzsubstanz (weiblichen NMRI-Mäusen): 22%; ED20 [1, 3]: 1 mg/kg
COc1ccccc1N1CCN(CC(O)COc2cccc3c2CCC3=O)CC1 (racemic) [Beispiel 13, 4-(3-[4-(2-Methoxyphenyl)-1-pipera-zinyl]-2-hydroxy-propoxy)-indanon-1] | – | – | 11 | 0.0293 | 0,89 | 376 | Motilitätshemmung um 50 %: -mal größere Dosen als Referenzsubstanz (weiblichen NMRI-Mäusen): 5 mal; Wirksamkeit nach den blutdrucksenkenden Dosen (ED 20 %) von Chlorpromazin ([1]; relative to Chlorpromazin): 89%
COc1ccc(N2CCN(CC(O)COc3ccc4c(c3)CCC4=O)CC2)cc1 (racemic) [Beispiel 19, 5-(3-[4-(4-Methoxyphenyl)-1-piperazi-nyl]-2-hydroxy-propoxy)-indanon-1] | 5.76 | sedativ wirken | – | – | – | – | ED20 [1, 3]: 7.91 mg/kg; hypotensiv wirksame Dosen, -mal größer als die der Referenzsubstanz ([1]; relative to Chlorpromazin): 300 mal
O=C1CCc2cccc(OCC(O)CN3CCN(c4ccccc4Cl)CC3)c21 (racemic) [Beispiel 20, 7-(3-[4-(2-Chlorphenyl)-1-piperazinyl]--2-hydroxy-propoxy)-indanon-1] | – | – | 42.4 | 0.0104 | 2,50 | 4077 | Motilitätshemmung um 50 %: -mal größere Dosen als Referenzsubstanz (weiblichen NMRI-Mäusen): 20 mal; Quotienten aus den effektiven Dosen für die Motilitätshemmung (ED 50 %) und Blutdrucksenkung (ED 20 %) [1]: 4 077; stärker wirksam als Chlorpromazin (Blutdrucksenkung ED 20 %) ([1]; relative to Chlorpromazin): 2,5 mal
COc1ccccc1N1CCN(CC(O)COc2cccc3c2C(=O)CC3)CC1 (racemic) [Beispiel 23, 7-(3-[4-(2-Methoxyphenyl)-1-piperazi-nyl]-2-hydroxy-propoxy)-indanon-1] | – | – | 19 | 0.057 | 0,46 | 333 | –
O=C1CCc2c(OCCCN3CCN(c4ccc(F)cc4)CC3)cccc21 [Beispiel 4, 4-(3-[4-(4-Fluorphenyl)-1-piperazinyl]-propoxy)-indan-1-on] | 3.56 | sedativ wirken | – | – | – | – | Blutdrucksenkung ED 20 % R.W. (Relative Wirksamkeit; Chlorpromazin = 1,00) [1, 6]: 0,14
O=C1CCc2cccc(OCCCN3CCN(c4ccc(F)cc4)CC3)c21 [Beispiel 30, 7-(3-[4-(4-Fluorphenyl)-1-piperazinyl]--propoxy)-indanon-1] | 5.03 | sedativ wirken | – | – | – | – | Blutdrucksenkung ED 20 % R.W. (Relative Wirksamkeit; Chlorpromazin = 1,00) [1, 6]: 0,16; hypotensiv wirksame Dosen, -mal größer als die der Referenzsubstanz ([1]; relative to Chlorpromazin): 6 mal
Cc1ccccc1N1CCN(CC(O)COc2cccc3c2CCC3=O)CC1 (racemic) [Beispiel 10, 4-(3-[4-(2-Methylphenyl)-1-pipera-zinyl]-2-hydroxy-propoxy)-indanon-1] | – | – | 46.4 | – | 0,16 | 294 | Motilitätshemmung um 50 %: -mal größere Dosen als Referenzsubstanz (weiblichen NMRI-Mäusen): 20 mal; Wirksamkeit nach den blutdrucksenkenden Dosen (ED 20 %) von Chlorpromazin ([1]; relative to Chlorpromazin): 16%
O=C1CCc2c(OCC(O)CN3CCN(c4ccc(F)cc4)CC3)cccc21 (racemic) [Beispiel 1, 4-(3-[4-(4-Fluorphenyl)-1-piperazinyl]-2-hydroxy-propoxy)--indanon-1] | 3.05 | sedativ wirken | – | – | – | – | Wirkungsstärke (sedativ) der Referenzsubstanz (weiblichen NMRI-Mäusen): 69%; ED20 [1, 3]: 1.07 mg/kg
CN(C)CCCN1c2ccccc2Sc2ccc(Cl)cc21 [Chlorpromazin, reference compound] | 2.11 | – | – | – | 1,00 | 81 | Quotienten aus den effektiven Dosen für die Motilitätshemmung (ED 50 %) und Blutdrucksenkung (ED 20 %) [1]: 81; ED20 [1]: 0.026 mg/kg; Blutdrucksenkung ED 20 % R.W. (Relative Wirksamkeit; Chlorpromazin = 1,00) [1, 6]: 1,00; Blutdrucksenkung ED 20 % [1, 4]: 0,0260 mg/kg
COc1ccccc1N1CCN(CC(O)COc2ccc3c(c2)CCC3=O)CC1 (racemic) [Beispiel 17] | – | – | 13.2 | 0.0722 | 0,36 | 183 | Quotienten aus den effektiven Dosen für die Motilitätshemmung (ED 50 %) und Blutdrucksenkung (ED 20 %) [1]: 183

— patent publication EP0043971A1, “Indanoneoxyalkylpiperazine derivatives, the preparation thereof and pharmaceutical compositions containing the same” (priority 1980, dated 1982)
